The EC50 is the concentration needed to bring the measured effect to its halfway point.

Structures are written as SMILES.

Test [1] has as its target T1, CaM/CaMBD complex (CaM and SK2 channel fragment R395–Q486) (Rattus norvegicus, UniProt P0DP29+P70604).
T1 construct: gene Kcnn2; both expressed in E. coli Rosetta-2
Nature of the test: X-ray crystal structure (soaked crystals). The note with it: Ca2+-CaM, site at interface of CaMBD and CaM N-lobe. It is filed as binding.

The target of test [2] is T2, SK2-a channel (SK2, KCa2.2) co-expressed with CaM (Rattus norvegicus, UniProt P0DP29+P70604).
T2 construct: gene Kcnn2; full-length SK2-a co-transfected with CaM and GFP in TsA201 cells; tetrameric channel
T2 sequence (P70604 whole entry, one chain of several): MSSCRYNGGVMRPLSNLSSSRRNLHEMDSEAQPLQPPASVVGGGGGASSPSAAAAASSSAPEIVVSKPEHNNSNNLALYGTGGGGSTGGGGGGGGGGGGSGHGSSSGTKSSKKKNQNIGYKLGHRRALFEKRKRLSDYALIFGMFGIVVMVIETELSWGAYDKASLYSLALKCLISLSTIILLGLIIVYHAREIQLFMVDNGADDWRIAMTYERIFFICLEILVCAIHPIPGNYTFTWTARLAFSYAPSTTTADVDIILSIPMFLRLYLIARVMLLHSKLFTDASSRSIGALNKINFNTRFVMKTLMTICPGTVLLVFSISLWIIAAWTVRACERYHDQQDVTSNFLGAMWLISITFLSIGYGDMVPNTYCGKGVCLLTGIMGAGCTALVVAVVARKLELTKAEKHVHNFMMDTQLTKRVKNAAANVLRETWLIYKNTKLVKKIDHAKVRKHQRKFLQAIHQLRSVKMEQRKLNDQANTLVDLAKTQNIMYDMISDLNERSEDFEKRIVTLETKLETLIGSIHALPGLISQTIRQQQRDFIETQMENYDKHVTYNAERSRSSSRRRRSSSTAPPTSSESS
Nature of the test: inside-out patch clamp, potentiation of SK2 current. In kind it is cell-based. A general note: In patch-clamp work, channel activity is measured electrically.

T1 sequence (P70604 396-487, one chain of several): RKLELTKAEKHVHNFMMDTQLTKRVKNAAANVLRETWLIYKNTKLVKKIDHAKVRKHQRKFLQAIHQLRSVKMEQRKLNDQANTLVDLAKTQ

With `O=C1Nc2c(F)cccc2C1=NO` [SKS-14, 7-fluoro-3-(hydroxyimino)indolin-2-one], the “X-ray crystal structure (soaked crystals)” value in test [1] (soaked about 5 months) was “crystal structures of SKS-11 and SKS-14 in complex with their binding pocket”. Moreover, in test [2], the concentration giving a half-maximal response (EC50) amounted to 33.2 ± 4.8 µM.
Consider `O=C1Nc2c(ccc(Cl)c2Cl)C1=NO` [NS309], for which the EC50 in test [2] amounted to 0.552 ± 0.083 µM.
Turning to `Cc1cc2c(cc1Br)NC(=O)C2=NO` [SKS-11, 6-bromo-5-methyl-1H-indole-2,3-dione-3-oxime], the “X-ray crystal structure (soaked crystals)” value in test [1] (soaked about 1 month) was “crystal structures of SKS-11 and SKS-14 in complex with their binding pocket”. In test [2], the EC50 was determined as 3.87 ± 0.88 µM.

The values are drawn from paper PMC5719431, “Structural insights into the potency of SK channel positive modulators” (Scientific Reports, 2017).
